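Cells were grown in 96-well plates and exposed to each compound for 48 hours at five concentrations; endpoints were interpolated linearly between bracketing concentrations, or set to the highest concentration if not reached. GI50 marks 50% less growth.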 The source made the active and inactive calls. No stated cut-off is given here; in the data, active = GI50 up to about 1.1 µM and inactive = higher.
How the values were obtained:
Assay in all cases: DTP human tumour cell line panel, 48 h
OVCAR-5 = test system: OVCAR-5
OVCAR-8 = test system: OVCAR-8
CCRF-CEM = test system: CCRF-CEM
NCI-H460 = test system: NCI-H460
SR = test system: SR
EKVX = test system: EKVX
NCI/ADR-RES = test system: NCI/ADR-RES
A549 = test system: A549
KM12 = test system: KM12
OVCAR-4 = test system: OVCAR-4
SF-295 = test system: SF-295
COLO 205 = test system: COLO 205
786-0 = test system: 786-0
RXF 393 = test system: RXF 393
HCT-15 = test system: HCT-15
PC-3 = test system: PC-3
SK-MEL-28 = test system: SK-MEL-28
SNB-75 = test system: SNB-75
LOX IMVI = test system: LOX IMVI
MDA-MB-231 = test system: MDA-MB-231

SMILES	GI50 (OVCAR-5)	GI50 (OVCAR-8)	GI50 (CCRF-CEM)	GI50 (NCI-H460)	GI50 (SR)	GI50 (EKVX)	GI50 (NCI/ADR-RES)	GI50 (A549)	GI50 (KM12)	GI50 (OVCAR-4)	GI50 (SF-295)	GI50 (COLO 205)	GI50 (786-0)	GI50 (RXF 393)	GI50 (HCT-15)	GI50 (PC-3)	GI50 (SK-MEL-28)	GI50 (SNB-75)	GI50 (LOX IMVI)	GI50 (MDA-MB-231)
COc1cc(/C=C/c2ccc(O)c(OC)c2)cc(OC)c1	31.6 µM (inactive)	37.5 µM (inactive)	14.4 µM (inactive)	19 µM (inactive)	25.8 µM (inactive)	28.2 µM (inactive)	31 µM (inactive)	25.6 µM (inactive)	20.8 µM (inactive)	41.8 µM (inactive)	17.7 µM (inactive)	> 100 µM (inactive)	45.5 µM (inactive)	22.6 µM (inactive)	14.3 µM	10.3 µM (inactive)	33.1 µM (inactive)	23.1 µM (inactive)		
COc1ccc(/C=C2\C[C@H]3[C@@H]4CCC5=CC(=O)CC[C@]5(C)[C@H]4CC[C@]3(C)C2=O)cc1OC	32.4 µM (inactive)	2.6 µM (inactive)	2.19 µM (inactive)	6.93 µM (inactive)	2.81 µM (inactive)	8.41 µM (inactive)	6.27 µM (inactive)	5.58 µM (inactive)	0.279 µM (active)	13.2 µM (inactive)	0.0635 µM (active)	3.1 µM (inactive)	35.8 µM (inactive)	18 µM (inactive)	9.25 µM	5.51 µM (inactive)	40.7 µM (inactive)	> 100 µM (inactive)	11.9 µM (inactive)	
OCC(O)COCn1cc(Cn2ncc3c(SCc4ccccc4)ncnc32)nn1 (configuration not stated)	> 100 µM (inactive)	> 100 µM (inactive)	> 100 µM (inactive)			> 100 µM (inactive)	> 100 µM (inactive)	> 100 µM (inactive)	> 100 µM (inactive)	> 100 µM (inactive)	> 100 µM (inactive)	> 100 µM (inactive)	> 100 µM (inactive)		> 100 µM	> 100 µM (inactive)	> 100 µM (inactive)		> 100 µM (inactive)	> 100 µM (inactive)
CCOP(=O)(OCC)C1CC(n2cc(C)c(=O)[nH]c2=O)OC1CO (configuration not stated)	83.4 µM (inactive)	> 100 µM (inactive)	> 100 µM (inactive)	> 100 µM (inactive)	> 100 µM (inactive)			> 100 µM (inactive)	> 100 µM (inactive)	> 100 µM (inactive)	> 100 µM (inactive)		> 100 µM (inactive)	> 100 µM (inactive)	> 100 µM	> 100 µM (inactive)	> 100 µM (inactive)	> 100 µM (inactive)	> 100 µM (inactive)	> 100 µM (inactive)
O=C(NC(CO)Cc1ccc(Oc2cc(CC(CO)NC(=O)OCc3ccccc3)ccc2OC(=O)OCc2ccccc2)cc1)OCc1ccccc1 (configuration not stated)	24.4 µM (inactive)	15.4 µM (inactive)	4.28 µM (inactive)	17.8 µM (inactive)	4.19 µM (inactive)	14.5 µM (inactive)	28.4 µM (inactive)	11.6 µM (inactive)	17.1 µM (inactive)	18.8 µM (inactive)	15.9 µM (inactive)	18.2 µM (inactive)	25.1 µM (inactive)		24.9 µM	11.4 µM (inactive)	17.9 µM (inactive)	16.5 µM (inactive)	12.1 µM (inactive)	
O=C(/N=N/c1ccccc1Br)NNc1ccccc1Br	> 100 µM (inactive)	> 100 µM (inactive)	31 µM (inactive)	70.3 µM (inactive)	32.8 µM (inactive)			64.9 µM (inactive)		56.2 µM (inactive)			72.1 µM (inactive)		61.2 µM	38.2 µM (inactive)	53.7 µM (inactive)	> 100 µM (inactive)	91.4 µM (inactive)	62.2 µM (inactive)

Source: ChEMBL document CHEMBL1201862, “PubChem BioAssay data set” (2004)
